From publication PMC10812665, “Definition of the Neurotoxicity-Associated Metabolic Signature Triggered by Berberine and Other Respiratory Chain Inhibitors” (Antioxidants, 2023)

Target: T1, purified pig brain tubulin (Sus scrofa, UniProt P02550+P02554)
T1 construct: native alpha/beta-tubulin purified from pig brain
Test: tubulin polymerization, absorbance […] nm
Format: biochemical

T1 sequence (P02554 whole entry): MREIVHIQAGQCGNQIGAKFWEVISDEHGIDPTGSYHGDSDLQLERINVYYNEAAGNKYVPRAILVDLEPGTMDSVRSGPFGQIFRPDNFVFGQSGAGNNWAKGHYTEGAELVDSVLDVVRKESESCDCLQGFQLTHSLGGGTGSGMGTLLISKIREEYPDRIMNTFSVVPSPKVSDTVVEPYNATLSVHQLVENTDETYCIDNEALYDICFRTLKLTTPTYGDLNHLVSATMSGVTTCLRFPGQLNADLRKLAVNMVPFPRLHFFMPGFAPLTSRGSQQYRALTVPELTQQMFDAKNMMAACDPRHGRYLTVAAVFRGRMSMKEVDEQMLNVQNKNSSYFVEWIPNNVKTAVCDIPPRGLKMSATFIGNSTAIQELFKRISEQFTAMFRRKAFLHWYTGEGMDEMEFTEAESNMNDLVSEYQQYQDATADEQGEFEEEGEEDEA
T1 sequence (P02550 whole entry): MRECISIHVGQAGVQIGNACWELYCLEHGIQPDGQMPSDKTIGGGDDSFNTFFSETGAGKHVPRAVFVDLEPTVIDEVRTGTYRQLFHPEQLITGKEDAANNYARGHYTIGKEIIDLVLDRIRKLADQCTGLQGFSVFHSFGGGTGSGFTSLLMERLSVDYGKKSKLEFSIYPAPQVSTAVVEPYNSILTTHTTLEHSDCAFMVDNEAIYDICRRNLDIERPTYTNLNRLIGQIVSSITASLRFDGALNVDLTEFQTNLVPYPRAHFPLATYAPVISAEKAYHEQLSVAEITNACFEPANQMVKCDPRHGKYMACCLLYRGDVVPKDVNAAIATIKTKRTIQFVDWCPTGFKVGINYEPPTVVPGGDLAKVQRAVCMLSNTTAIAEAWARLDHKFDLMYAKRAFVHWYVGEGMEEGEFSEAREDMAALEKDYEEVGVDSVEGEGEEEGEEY

C=C(C)[C@H]1Cc2c(ccc3c2O[C@@H]2COc4cc(OC)c(OC)cc4[C@@H]2C3=O)O1 [Rot, rotenone]
EC50: 640 nM
